Data set [1] can be described thus: Fragmentation of pyridine adducts in deuterated aqueous buffer followed by 1H NMR. The format is physicochemical. From the text:
The fragmentation of cationic adducts was followed by ^1H NMR in deuterated buffer, with the relative concentration of each species established by integration of unique resonances. Each adduct in Table 3 and Table 4 was thus examined in three independent runs. […]

The subject of data set [2] is CHO-K1 cells. The format is cell-based. The conditions noted are these: for concentrations at which nontoxic: Chinese hamster. On the procedure: Approximately 1×10^4 CHO-K1 cells/well were plated in a 96-well plate in 100 μL of complete growth media, and adhered overnight at 37° C. The media was then replaced by 100 μL of polymer or monomer in serum-free media at the indicated concentration. Full media was replenished after 4 or 24 h. Viability was measured by MTT assay, with non-treated cells assigned as 100% viability. The results are plotted in FIGS. 11A-11D and 12A-12H.

The mark [3] stands for this setting: pseudo first order fragmentation at 50° C., deuterated buffer.
Where [4] appears, read: pseudo first order fragmentation at 37° C.

A value given as a limit tells only on which side of the number the result lay.

As to `COC(=O)c1ccc[n+](C2CCC3SC2CCC3[n+]2cccc(C(=O)OC)c2)c1.O=[N+]([O-])[O-].O=[N+]([O-])[O-]` (centres unmarked) [Compound 5b, 2,6-di-3-methoxycarbonylpyridinium-9-thiabicyclo[3.3.1]nonane dinitrate], in data set [1] (50° C., relative to 5e = 1.00), the krel was 1.86. Also, the kfrag result in data set [1] (setting [3]) is “(3.03 ± 0.38) × 10^−2 h^−1”.

With `COC(=O)c1cc[n+](C2CCC3SC2CCC3[n+]2ccc(C(=O)OC)cc2)cc1.O=[N+]([O-])[O-].O=[N+]([O-])[O-]` (centres unmarked) [Compound 5c, 2,6-di-4-methoxycarbonylpyridinium-9-thiabicyclo[3.3.1]nonane dinitrate], the “concentration up to which no effect (toxicity)” value in data set [2] is at least 500 µM. Besides, the krel in data set [1] (37° C., relative to 5i = 1) is given as 0.3; in data set [1] (50° C., relative to 5e = 1.00), 2.25. Besides, the results for the kfrag result in data set [1] (setting [4]) and in data set [1] (setting [3]) were “(0.16 ± 0.01) × 10^−2 h^−1” and “(3.66 ± 0.33) × 10^−2 h^−1”, respectively.

In data set [1] (50° C., relative to 5e = 1.00), `NC(=O)c1ccc[n+](C2CCC3SC2CCC3[n+]2cccc(C(N)=O)c2)c1.O=[N+]([O-])[O-].O=[N+]([O-])[O-]` (centres unmarked) [Compound 5d, 2,6-di-3-carbamylpyridinium-9-thiabicyclo[3.3.1]nonane dinitrate] yielded a krel of 1.95. The kfrag result in data set [1] (setting [3]) is given as “(3.18 ± 0.32) ×10^−2 h^−1”.

As to `NC(=O)c1cc[n+](C2CCC3SC2CCC3[n+]2ccc(C(N)=O)cc2)cc1.O=[N+]([O-])[O-].O=[N+]([O-])[O-]` (centres unmarked) [Compound 5e, 2,6-di-4-carbamylpyridinium-9-thiabicyclo[3.3.1]nonane dinitrate], the krel in data set [1] (50° C., relative to 5e = 1.00) is 1.00. The kfrag result in data set [1] (setting [3]) is recorded as “(1.62 ± 0.10) ×10^−2 h^−1”.

Regarding `Brc1ccc[n+](C2CCC3SC2CCC3[n+]2cccc(Br)c2)c1.O=[N+]([O-])[O-].O=[N+]([O-])[O-]` (centres unmarked) [Compound 5f, 2,6-di-3-bromopyridinium-9-thiabicyclo[3.3.1]nonane dinitrate], the krel in data set [1] (50° C., relative to 5e = 1.00) stood at 4.05. Further, the kfrag entry in data set [1] (setting [3]) is recorded as “(6.59 ± 0.58) × 10^−2 h^−1”.

Turning to `FC(F)(F)c1ccc[n+](C2CCC3SC2CCC3[n+]2cccc(C(F)(F)F)c2)c1.O=[N+]([O-])[O-].O=[N+]([O-])[O-]` (centres unmarked) [Compound 5g, 2,6-di-3-trifluoromethylpyridinium-9-thiabicyclo[3.3.1]nonane dinitrate], the krel was found to be 11 in data set [1] (37° C., relative to 5i = 1) and 46.2 in data set [1] (50° C., relative to 5e = 1.00). For the same compound, the figures for the kfrag result in data set [1] (setting [4]) and in data set [1] (setting [3]) were “(5.87 ± 0.71) × 10^−2 h^−1” and “(74.8 ± 5.4) × 10^−2 h^−1”, respectively.

With `N#Cc1ccc[n+](C2CCC3SC2CCC3[n+]2cccc(C#N)c2)c1.O=[N+]([O-])[O-].O=[N+]([O-])[O-]` (centres unmarked) [Compound 5h, 2,6-di-3-cyanopyridinium-9-thiabicyclo[3.3.1]nonane dinitrate], the krel in data set [1] (37° C., relative to 5i = 1) was found to be 2.1; in data set [1] (50° C., relative to 5e = 1.00), 6.68. The figures for the kfrag entry in data set [1] (setting [4]) and in data set [1] (setting [3]) were “(1.14 ± 0.16) × 10^−2 h^−1” and “(10.8 ± 0.98) × 10^−2 h^−1”, respectively.

As to `COc1cc(Br)c[n+](C2CCC3SC2CCC3[n+]2cc(Br)cc(OC)c2)c1.O=[N+]([O-])[O-].O=[N+]([O-])[O-]` (centres unmarked) [Compound 5i, 2,6-di-3-bromo-5-methoxylpyridinium-9-thiabicyclo[3.3.1]nonane dinitrate], in data set [2], the “concentration up to which no effect (toxicity)” value was at least 500 µM. Further, the krel was 1 in data set [1] (37° C., relative to 5i = 1) and 4.64 in data set [1] (50° C., relative to 5e = 1.00). The kfrag result in data set [1] (setting [4]) was “(0.55 ± 0.04) × 10^−2 h^−1”; in data set [1] (setting [3]) it was “(7.51 ± 0.53) × 10^−2 h^−1”.

The compound `NC(=O)c1cc(Br)c[n+](C2CCC3SC2CCC3[n+]2cc(Br)cc(C(N)=O)c2)c1.O=S(=O)([O-])C(F)(F)F.O=S(=O)([O-])C(F)(F)F` (centres unmarked) [Compound 5j, 2,6-di-3-bromo-5-carbamylpyridinium-9-thiabicyclo[3.3.1]nonane ditriflate] gave a krel in data set [1] (37° C., relative to 5i = 1) of 17. The kfrag entry in data set [1] (setting [4]) is “(9.34 ± 0.87) × 10^−2 h^−1”.

Regarding `COC(=O)c1cc(C(=O)OC)c[n+](C2CCC3SC2CCC3[n+]2cc(C(=O)OC)cc(C(=O)OC)c2)c1.O=S(=O)([O-])C(F)(F)F.O=S(=O)([O-])C(F)(F)F` (centres unmarked) [Compound 5k, 2,6-di-3,5-dimethoxycarbonylpyridinium-9-thiabicyclo[3.3.1]nonane ditriflate], in data set [1] (37° C., relative to 5i = 1), the krel stood at 22. The kfrag result in data set [1] (setting [4]) is listed as “(11.9 ± 1.13) × 10^−2 h^−1”.

`COC(=O)c1cc(Br)c[n+](C2CCC3SC2CCC3[n+]2cc(Br)cc(C(=O)OC)c2)c1.O=S(=O)([O-])C(F)(F)F.O=S(=O)([O-])C(F)(F)F` (centres unmarked) [Compound 5l, 2,6-di-3-bromo-5-methoxycarbonylpyridinium-9-thiabicyclo[3.3.1]nonane ditriflate] registered a krel in data set [1] (37° C., relative to 5i = 1) of 20. Moreover, in data set [1] (setting [4]), the kfrag entry is reported as “(10.9 ± 1.81) × 10^−2 h^−1”.

With `c1cc(CCCc2ccncc2)ccn1` [monomer 2a], the “concentrations at which nontoxic” value in data set [2] is “below 500 μM”.

For `O=C(OCCCOC(=O)c1ccncc1)c1ccncc1` [monomer 2c], the “concentrations at which nontoxic” value in data set [2] is “below 500 μM”.

In the case of `Brc1cncc(OCCCOc2cncc(Br)c2)c1` [monomer 2i, 1,3-bis((5-bromopyridin-3-yl)oxy)propane], in data set [2], the “concentrations at which nontoxic” value is on record as “below 500 μM”.

Values taken from patent publication US11589590B2, “Antimicrobial coatings and methods of making and using thereof” (GEORGIA TECH RESEARCH CORPORATION, priority 2016, dated 2023).
